From ChEMBL document CHEMBL1201862, “PubChem BioAssay data set” (2004)
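Interpolation was linear, between the two tested concentrations surrounding the appropriate level; five concentrations were tested over 48 hours in 96-well plates. GI50 = concentration required for 50% inhibition of growth.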 Calls of active or inactive are those of the source. Cut-off read from the data, not from the text of the source: active = GI50 up to about 1.1 µM and inactive = higher. Square brackets hold non-standard residues; d marks the D form. Peptide text beside a SMILES is read from it. * marks the point of attachment. AllylGly = C=CC[CH](N)C(=O)O; Boc = CC(C)(C)OC(=O)*; OtBu = CC(C)(C)O*

Tests used:
Test in all cases: DTP human tumour cell line panel, 48 h
DLD-1 = system: DLD-1
RPMI-8226 = system: RPMI-8226
HCC 2998 = system: HCC 2998
UACC-257 = system: UACC-257
SF-295 = system: SF-295
HCT-116 = system: HCT-116
HOP-92 = system: HOP-92
UACC-62 = system: UACC-62
OVCAR-5 = system: OVCAR-5
LXFL 529 = system: LXFL 529
OVCAR-3 = system: OVCAR-3
OVCAR-8 = system: OVCAR-8
MOLT-4 = system: MOLT-4
XF498 = system: XF498
EKVX = system: EKVX
SNB-75 = system: SNB-75
MDA-MB-435 = system: MDA-MB-435
NCI/ADR-RES = system: NCI/ADR-RES
BT-549 = system: BT-549
T47D = system: T47D

Measured: GI50

N#CC(C#N)C(c1ccccc1)c1ccccc1
inactive: DLD-1 > 100 µM | RPMI-8226 > 100 µM | HCC 2998 > 100 µM | UACC-257 > 100 µM | SF-295 > 100 µM | HCT-116 > 100 µM | HOP-92 > 100 µM | UACC-62 > 100 µM | OVCAR-5 > 100 µM | LXFL 529 > 100 µM | OVCAR-3 > 100 µM | OVCAR-8 > 100 µM | MOLT-4 82 µM

O=C(NC(=O)c1cn(CCN(CCO)C(=O)NCCCCCCNC(=O)N(CCO)CCn2cc(C(=O)NC(=O)OCc3ccccc3)c(=O)[nH]c2=O)c(=O)[nH]c1=O)OCc1ccccc1
inactive: XF498 > 100 µM | DLD-1 > 100 µM | RPMI-8226 > 100 µM | UACC-257 > 100 µM | SF-295 > 100 µM | EKVX > 100 µM | HCT-116 > 100 µM | HOP-92 > 100 µM | UACC-62 > 100 µM | OVCAR-5 > 100 µM | OVCAR-3 > 100 µM | OVCAR-8 > 100 µM | SNB-75 > 100 µM | MOLT-4 > 100 µM

CCN(CC)C(=O)COc1ccc(Br)cc1Br
inactive: DLD-1 > 100 µM | RPMI-8226 > 100 µM | HCC 2998 > 100 µM | UACC-257 > 100 µM | SF-295 > 100 µM | EKVX 7.91 µM | HCT-116 > 100 µM | HOP-92 87.5 µM | UACC-62 38.8 µM | OVCAR-5 > 100 µM | LXFL 529 > 100 µM | OVCAR-3 > 100 µM | SNB-75 83.6 µM | MOLT-4 > 100 µM

CC(=O)C1C(c2ccc(N(C)C)cc2)c2cc3c(cc2OC1(C)O)OCO3 (centres undefined)
inactive: XF498 34 µM | DLD-1 59.3 µM | RPMI-8226 26.7 µM | UACC-257 51.8 µM | SF-295 28.7 µM | EKVX 77.6 µM | HCT-116 39.8 µM | HOP-92 8.32 µM | UACC-62 32.9 µM | OVCAR-3 35 µM | OVCAR-8 73.5 µM | SNB-75 24.7 µM | MOLT-4 32.1 µM

CCOC(=O)C1=NC(c2ccccc2)(c2ccccc2)OC1=C(Cl)Cl
inactive: DLD-1 80.7 µM | RPMI-8226 19.1 µM | HCC 2998 18.5 µM | UACC-257 32.4 µM | SF-295 > 100 µM | EKVX 35.5 µM | HCT-116 29.2 µM | HOP-92 35.4 µM | UACC-62 99.8 µM | OVCAR-5 96.2 µM | LXFL 529 65.5 µM | OVCAR-3 42.2 µM | OVCAR-8 > 100 µM | SNB-75 > 100 µM | MOLT-4 36 µM

COc1cccc(NC(=O)C(=O)C(C(C)=O)c2nc3ccc(Cl)cc3nc2O)c1 (centres undefined)
inactive: DLD-1 > 100 µM | RPMI-8226 > 100 µM | HCC 2998 > 100 µM | UACC-257 > 100 µM | SF-295 > 100 µM | EKVX > 100 µM | HCT-116 > 100 µM | HOP-92 > 100 µM | UACC-62 > 100 µM | OVCAR-5 > 100 µM | LXFL 529 > 100 µM | OVCAR-3 > 100 µM | OVCAR-8 > 100 µM | SNB-75 54.7 µM | MOLT-4 > 100 µM

COc1cc(/C=C(\C#N)C(=O)c2ccccc2)ccc1OCc1ccccc1
inactive: XF498 > 100 µM | RPMI-8226 > 100 µM | HCC 2998 > 100 µM | UACC-257 > 100 µM | SF-295 > 100 µM | EKVX > 100 µM | HCT-116 > 100 µM | UACC-62 > 100 µM | OVCAR-5 > 100 µM | OVCAR-3 > 100 µM | OVCAR-8 > 100 µM | MOLT-4 > 100 µM

N#CCc1ccc(C(C#N)/C(CCCC(=O)Nc2cccc([N+](=O)[O-])c2)=N/NC(N)=S)cc1 (centres undefined)
inactive: DLD-1 87.5 µM | RPMI-8226 > 100 µM | HCC 2998 > 100 µM | UACC-257 > 100 µM | SF-295 > 100 µM | EKVX 36.6 µM | HCT-116 > 100 µM | HOP-92 83.8 µM | UACC-62 44.1 µM | OVCAR-5 > 100 µM | LXFL 529 92 µM | OVCAR-3 75.3 µM | SNB-75 > 100 µM | MOLT-4 70.3 µM

COc1ccc(CC2c3cc(Oc4cc(CC5c6cc(OC)c(OC)cc6CCN5C)ccc4O)c(OC)cc3CCN2C)cc1 (centres undefined)
inactive: RPMI-8226 2.44 µM | MDA-MB-435 4.14 µM | HCC 2998 1.14 µM | UACC-257 8.04 µM | SF-295 8.2 µM | EKVX 8.65 µM | NCI/ADR-RES 7.48 µM | HCT-116 2.22 µM | HOP-92 7.41 µM | UACC-62 8.65 µM | OVCAR-5 9.44 µM | BT-549 6.64 µM | OVCAR-3 8.05 µM | OVCAR-8 5.96 µM | T47D 6.43 µM | SNB-75 8.45 µM | MOLT-4 5.52 µM

C=CCC(NC(=O)C(CC(=O)OC(C)(C)C)NC(=O)OC(C)(C)C)C(=O)OC (centres undefined) (Boc-Asp(OtBu)-[AllylGly]-OMe; configuration not given here)
inactive: RPMI-8226 32.4 µM | MDA-MB-435 > 53.2 µM | HCC 2998 25.9 µM | UACC-257 24 µM | SF-295 > 100 µM | EKVX > 100 µM | NCI/ADR-RES > 100 µM | HCT-116 71.1 µM | HOP-92 > 78.2 µM | UACC-62 48.3 µM | OVCAR-5 > 100 µM | BT-549 > 100 µM | OVCAR-3 24.7 µM | OVCAR-8 16 µM | T47D 37.6 µM | SNB-75 97.9 µM | MOLT-4 > 49.9 µM
